Series [1] concerns L. brasiliensis promastigotes. In words: Leishmanicidal activity against L. brasiliensis promastigotes (XTT). Particulars: for IC50: read-out: L. brasiliensis IC50. How it is done:
(§1) Evaluations against Leishmania parasites: Promastigotes of Leishmania-Leishmania: L. amazonensis, Clone 1, NHOM-BR-76-LTB-012 (Lma, donated by the Paul Sabatier Université, France) and Leishmania-Viannia: L. braziliensis M2904 C192 RJA (M2904, donated by Dr. Jorge Arévalo from Universidad Peruana Cayetano Heredia, Peru). All strains were cultured in Schneider’s insect medium, (pH 6.2) supplemented with 10% FBS and incubated at 26 °C. Medium changes were made every 72 h to maintain a viable parasitic population. Leishmanicidal activity was determined according to Williams with some modifications. Samples were dissolved in DMSO (maximum final concentration 1%) at 10 mg/mL. Promastigotes in logarithmic phase of growth, at the concentration 3 × 10^6 parasites/mL, were distributed (100 μL/well) in 96-well flat bottom microtiter plates. Samples with different concentrations (3.1–100 μg/mL) were added (100 μL). […] Assays were performed in triplicates. The microwell plates were incubated for 72 h at 26 °C. After incubation, a solution of XTT (1 mg/mL) in PBS (pH 7.0 at 37 °C) with PMS (0.06 mg/mL) was added (50 μL/well), and incubated for 3 h at 26 °C. The optical density of each well was measured and the IC50 values calculated.
In general terms: Tetrazolium assays rely on reduction of a dye to a coloured formazan, in cell work by metabolically active cells.

For series [2], the system named is L. amazoniensis promastigotes. In words: Leishmanicidal activity against L. amazoniensis promastigotes (XTT). Particulars: for IC50: read-out: L. amazoniensis IC50. How it is done: as §1, with “All” for “Evaluations against Leishmania parasites: Promastigotes of Leishmania-Leishmania: L. amazonensis, Clone 1, NHOM-BR-76-LTB-012 (Lma, donated by the Paul Sabatier Université, France) and Leishmania-Viannia: L. braziliensis M2904 C192 RJA (M2904, donated by Dr. Jorge Arévalo from Universidad Peruana Cayetano Heredia, Peru). All”

The subject of series [3] is Raw 264.7 murine macrophage cell line. Nature of the series: Cytotoxicity in RAW cells (Resazurin). It is filed as cell-based. Particulars: RAW cells, 72 h at 37 °C, Resazurin, triplicate. How it is done:
(§2) Evaluations against RAW cells: The Raw 264.7 murine macrophage cell line was purchased from the American Type Culture Collection (ATCC-TIB71). The cells were maintained in DMEM-HG medium supplemented with 10% fetal bovine serum, 100 U/mL of penicillin and 100 μg/mL of streptomycin, and sodium bicarbonate (2.2 g/L) in humidified atmosphere at 37 °C with 5% CO2. Samples were prepared as described above and added (in 100 μL DMSO) at different concentrations (6.2–200 μg/mL). Medium blank, control drugs and cell growth controls were included to evaluate cell viability. The plates were incubated for 72 h at 37 °C with 5% CO2. After incubation for the indicated time, the cells were washed, after which 10 μL of Resazurin reagent (2.0 mM) was added. They were further incubated at 37 °C for 3 h in a humidified incubator. The IC50 values were assessed using a fluorometric reader (540 nm excitation, 590 nm emission) and the Gen5 software. All assays were performed in triplicate.
On the technique in general: Alamar Blue is a resazurin reagent that responds to reducing activity.

The test system of the next series is T. cruzi epimastigotes. Nature of the series: Trypanocidal activity against T. cruzi epimastigotes (XTT). Particulars: for IC50: read-out: T. cruzi IC50; for selectivity ratio at 72 h: mouse (RAW 264.7 cells) / Trypanosoma cruzi (epimastigotes), read-out: T. cruzi SI (selectivity index, cytotoxicity/anti-protozoal activity). It is filed as cell-based, Trypanosoma cruzi. How it is done:
Trypanocidal activity was determined according to Muelas-Serrano with some modifications. […] Benznidazol (3.1–100 μg/mL) was used as the control drug. Assays were performed in triplicates.

A short description of series [4]: Cytotoxicity in RAW cells (Resazurin). It is filed as cell-based, murine. Particulars: mouse. How it is done:
as §2

For series [5], the system named is promastigotes of L. mexicana. Also on record: method as in doi:10.1016/j.phytol.2009.10.002. Particulars: not part of this investigation; cited from earlier work.
Setting [6] is: promastigotes, 72 h at 26 °C, XTT, triplicates.
[7] abbreviates: L. brasiliensis SI (selectivity index, cytotoxicity/anti-protozoal activity), RAW cell IC50 / L. brasiliensis IC50.
[8] abbreviates: L. amazoniensis SI (selectivity index, cytotoxicity/anti-protozoal activity), RAW cell IC50 / L. amazoniensis IC50.
Where [9] appears, read: Trypanosoma cruzi, epimastigotes, 72 h at 26 °C, XTT, triplicates.

Where two headings read alike, the source gives them in different places.

These results are taken from paper PMC7412453, “SAR:s for the Antiparasitic Plant Metabolite Pulchrol. 1. The Benzyl Alcohol Functionality” (Molecules, 2020).

What is called IC50 is the concentration at which inhibition is half-maximal.

Regarding “2-Methoxy-6,6-dimethyl-9-(((4-methoxypentyl)oxy)methyl)-6H-benzo[c]chromene [3e]”, the “L. brasiliensis SI (selectivity index, cytotoxicity/anti-protozoal activity)” value in series [1] (RAW cell IC50 / L. brasiliensis IC50) is recorded as 0.3. For the same molecule, the IC50 worked out at 127 ± 11.3 µM in series [1] (setting [6]); 28.2 ± 8.5 µM in series [2] (setting [6]); 31.6 ± 5.6 µM in series [3]; 9 ± 0.6 µM in the series with T. cruzi epimastigotes (epimastigotes, 72 h at 26 °C, XTT, triplicates). In series [2] (RAW cell IC50 / L. amazoniensis IC50), the “L. amazoniensis SI (selectivity index, cytotoxicity/anti-protozoal activity)” value is listed as 1.1. Besides, the “T. cruzi SI (selectivity index, cytotoxicity/anti-protozoal activity)” value in the series on T. cruzi epimastigotes (RAW cell IC50 / T. cruzi IC50) came to 3.5.
As to `COC(=O)c1ccc2c(c1)-c1cc(OC)ccc1OC2(C)C` [5d, Methyl 2-Methoxy-6,6-dimethyl-6H-benzo[c]chromene-9-carboxylate], the IC50 in series [1] (72 h) worked out at 18.4 ± 5.7 µM; in series [2] (Leishmania amazonensis, 72 h), 59 ± 1.3 µM; in the series on T. cruzi epimastigotes (setting [9]), 31.8 ± 2.4 µM. Besides, the selectivity ratio at 72 h was 2.1 in series [1] (setting [7]), 0.7 in series [2] (setting [8]) and 1.2 with T. cruzi epimastigotes (RAW cell IC50 / T. cruzi IC50). This molecule showed a half-maximal inhibitory concentration (IC50) at 72 h in series [4] of 38.2 ± 2.7 µM.
On to `COc1ccc2c(c1)-c1cc(C(N)=O)ccc1C(C)(C)O2` [5e, 2-Methoxy-6,6-dimethyl-6H-benzo[c]chromene-9-carboxamide], for which the half-maximal inhibitory concentration (IC50) in series [1] (72 h) was found to be 145 ± 43.1 µM; in series [2] (Leishmania amazonensis, 72 h) it was 121 ± 21.2 µM; in the series with T. cruzi epimastigotes (setting [9]) it was 134 ± 38.8 µM. In addition, the selectivity ratio at 72 h in series [1] (setting [7]) was 0.3; in series [2] (setting [8]) it was 0.4; with T. cruzi epimastigotes (RAW cell IC50 / T. cruzi IC50), 0.4. This molecule also gave an IC50 at 72 h in series [4] of 49.8 ± 17.7 µM.
Turning to `COc1ccc2c(c1)-c1cc(CO)ccc1C(C)(C)O2` [compound 1, (2-methoxy-6,6-dimethyl-6H-benzo[c]chromen-9-yl)methanol], the selectivity ratio at 72 h in series [1] stood at 0.5; in series [2], 0.4; with T. cruzi epimastigotes (RAW cell IC50 / T. cruzi IC50) it was 1.7. Also, the IC50 in series [1] (72 h) is 59.2 ± 11.8 µM; in series [2] (Leishmania amazonensis, 72 h), 77.7 ± 5.6 µM; in series [5] it was 17 µM; in the series on T. cruzi epimastigotes (Trypanosoma cruzi, 72 h) it was 18.5 ± 9.6 µM. Further, the IC50 at 72 h in series [4] (RAW cells, 72 h at 37 °C, Resazurin, triplicate, read-out: Cytotoxicity IC50) came out at 30.7 ± 1.1 µM.
Take `COc1ccc2c(c1)-c1cc(C(=N)NO)ccc1C(C)(C)O2` [compound 6, N-hydroxy-2-methoxy-6,6-dimethyl-6H-benzo[c]chromene-9-carboximidamide]: the IC50 in series [1] (72 h) was 52 ± 18.6 µM; in series [2] (Leishmania amazonensis, 72 h) it was 52 ± 16.7 µM; in the series on T. cruzi epimastigotes (setting [9]), 33.4 ± 14.9 µM. The selectivity ratio at 72 h amounted to 0.5 in series [1] (setting [7]), 0.5 in series [2] (setting [8]) and 0.8 with T. cruzi epimastigotes (RAW cell IC50 / T. cruzi IC50). In series [4], this molecule showed an IC50 at 72 h of 26.4 ± 1.5 µM.
